Experimental data taken from patent US20130266557A1, “METHODS FOR TREATMENT OF A SARCOMA USING AN EPIMETABOLIC SHIFTER (COENZYME Q10)” (priority 2009, published 2013).

How the values were obtained:
Hep3B = test: Induction of early apoptosis by CoQ10; format: cell-based
Protocol: (§1) The effects of Coenzyme Q10 treatment on a variety of oncogenic and normal cell lines were examined and compared. The sensitivity of cells to Coenzyme Q10 was assessed by monitoring induction of apoptosis. CoQ10 treatment of cells was carried out as described in detail below in the Materials and Methods. Induction of apoptosis was assessed in the treated cells by monitoring indicators of early apoptosis (e.g., Bcl-2 expression, caspase activation and by using annexin V assays) as described below. From these studies, the minimal CoQ10 dosage, e.g., concentration of CoQ10 and time of treatment, required to induce apoptosis in the panel of cell lines was determined.
(§2) Cells were cultured in T-75 flasks with relevant medium supplemented with 10% Fetal Bovine Serum (FBS), 1% PSA (penicillin, streptomycin, amphotericin B) (Invitrogen and Cellgro) in a 37° C. incubator with 5% CO2 levels until 70-80% confluence was reached. To harvest cells for treatment, flasks were primed with 1 mL Trypsin, aspirated, trypsinized with an additional 3 mL, and incubated at 37° C. for 3-5 minutes. Cells were then neutralized with an equal volume of media and the subsequent solution was centrifuged at […] for 8 minutes. The supernatant was aspirated and the cells were resuspended with 8.5 ml of media. A mixture of 500 ul of the resuspension and 9.5 ml of […] was read twice by a coulter counter and the appropriate number of cells to be seeded into each dish was determined. Control and concentration ranging from 0-200 μM groups were examined in triplicate. From a 500 μM CoQ-10 stock solution, serial dilutions were performed to achieve desired experimental concentration in appropriate dishes. Dishes were incubated in a 37° C. incubator with 5% CO2 levels for 0-72 hours depending on cell type and experimental protocol.
(§3) The volume of sample to load per well was determined using the raw mean concentration of protein obtained from the BCA protein assay. Approximately 30-60 μg of protein were loaded for each treatment time point. Proteins were run in triplicate on 12% Tris-HCl ready gels (Bio-Rad) or hand cast gels in 1× running buffer at 85 and 100 volts. Proteins were then transferred onto nitrocellulose paper for an hour at 100 volts, and blocked for another hour in a 5% milk solution. Membranes were placed in primary antibody (1 uL Ab:1000 uL TBST) (Cell Signaling) overnight at […] The following day, membranes were washed three times for ten minutes each with Tris-Buffered Saline Tween-20 (TBST), and secondary antibody (anti-rabbit; 1 uL Ab: 1000 uL TBST) was applied for an hour at […] Membranes were washed again three times for ten minutes with TBST and chemoluminescence using Pico or Femto substrate was completed (Pierce). Membranes were then developed at time intervals that produced the best visual results. After developing, membranes were kept in TBST at […] until Actin levels could be measured.
(§4) Cells were washed twice in PBS10× and resuspended in Binding Buffer (0.1 M HEPES, pH 7.4; 1.4 M NaCl; 25 mM CaCl2). Samples of 100 μl were added to a culture tube with 5 μl of annexin-PE dye or […]. The cells were mixed and incubated without light at room temperature for 15 minutes. After which, 400 μl of 1×Binding Buffer was added to each sample and they were subjected to analysis by flow cytometry.

HepG2 = test: Induction of early apoptosis by CoQ10; format: cell-based
Protocol: as §1, §2, §3, §4

MDA MB 468 = test: Induction of early apoptosis by CoQ10; format: cell-based
Protocol: as §1, §2, §3, §4

PC3 = test: Induction of early apoptosis by CoQ10; format: cell-based
Protocol: as §1, §2, §3, §4

BT-20 = test: Induction of early apoptosis by CoQ10; format: cell-based
Protocol: as §1, §2, §3, §4

ZR-75 = test: Induction of early apoptosis by CoQ10; format: cell-based
Protocol: as §1, §2, §3, §4

cancer = settings: Mazzio 2006; cited from earlier work

Coenzyme Q10 [CoQ10]
Minimal CoQ10 Concentration required for induction of early apoptosis (Hep3B; Hep3B): 50 µM
Treatment Time required for induction of early apoptosis (Hep3B; Hep3B): 24 h
Indication of Early apoptosis (Bcl-2, annexin V, or caspase activation) (Hep3B; LIVER: Hep3B): Very Strong
Minimal CoQ10 Concentration required for induction of early apoptosis (HepG2; HepG2): 50 µM
Treatment Time required for induction of early apoptosis (HepG2; HepG2): 24 h
Indication of Early apoptosis (Bcl-2, annexin V, or caspase activation) (HepG2; LIVER: HepG2): Very Strong
Indication of Early apoptosis (Bcl-2, annexin V, or caspase activation) (MDA MB 468; BREAST: MDA MB 468): Strong
Minimal CoQ10 Concentration required for induction of early apoptosis (MDA MB 468; MDA MB 468): 100 µM
Treatment Time required for induction of early apoptosis (MDA MB 468; MDA MB 468): 48 h
Minimal CoQ10 Concentration required for induction of early apoptosis (PC3; PC3): 25 µM
Treatment Time required for induction of early apoptosis (PC3; PC3): 24 h
Indication of Early apoptosis (Bcl-2, annexin V, or caspase activation) (PC3; PROSTATE: PC3): Very Strong
Indication of Early apoptosis (Bcl-2, annexin V, or caspase activation) (BT-20; BREAST: BT-20): Strong
Minimal CoQ10 Concentration required for induction of early apoptosis (BT-20; BT-20): 100 µM
Treatment Time required for induction of early apoptosis (BT-20; BT-20): 48 h
Indication of Early apoptosis (Bcl-2, annexin V, or caspase activation) (ZR-75; BREAST: ZR-75): Slight
Minimal CoQ10 Concentration required for induction of early apoptosis (ZR-75; ZR-75): 200 µM
Treatment Time required for induction of early apoptosis (ZR-75; ZR-75): 72 h
Lethality against cancer (cancer): did not find CoQ10 to be as lethal as expected
